The test system of this test is 186277-243-T-J2-PDC complex spheroid viability. In words: Anticancer human tumor 186277-243-T-J2-PDC patient-derived colon adenocarcinoma cell line growth inhibition [POLQ]. The note with it: for viability, T/C: stronger effect = lower value. As for the experimental part:
Multicellular complex tumor spheroid response to Polymerase (POL) inhibitors (novobiocin, ART-558, RP6685) in combination with a variety of drugs and investigational agents in selected tumor cell lines
The POL inhibitors (novobiocin, ART-558, and RP6685) were evaluated both individually and in combination with standard of care and investigational anticancer small molecules within a complex spheroid model of solid tumors. . Complex spheroids include a stromal component modeled by human endothelial cells (HUVEC) and fibroblasts modeled by human mesenchymal stem cells (MSCs). The concentration ranges selected for each drug and investigational agent were based upon clinically achievable concentrations if the clinical Cmax of the agent was known.
Compounds. The drugs and investigational agents: novobiocin (NSC847541), ART-558 (NSC835418), RP-6685 (NSC848927), peposertib (NSC802822), ceralasertib (NSC780249), elimusertib (NSC800525), camonsertib (NSC841442), AZD-1390 (NSC803789), olaparib (NSC753686), talazoparib (NSC767125), rucaparib (NSC756644), sotorasib (NSC818433), MRTX-1133 (NSC836407), SN-38 (NSC673596), topotecan (NSC609699), epotoside (NSC141540), doxorubicin (NSC123127), gemcitabine (NSC613327), 5-fluorouracil (NSC19893), paclitaxel (NSC125973), vemurafenib (NSC761431), MSA-2 (NSC828583), SN-011 (NSC837082), adavosertib (NSC754352), prexasertib (NSC758257), carboplatin (NSC241240) and oxaliplatin (NSC266046), were obtained from the National Cancer Institute (NCI) Developmental Therapeutics Program Chemical Repository (21). The FDA-approved anticancer drug set is available from the Developmental Therapeutics Program at https://dtp.cancer.gov/organization/dscb/obtaining/. […] The stock solutions were prepared in dimethyl sulfoxide (DMSO, Sigma-Aldrich, St. Louis, MO, cat. D2650), except for the platinum compounds which were prepared in saline (Quality Biological, Gaithersburg, MD, cat. 114-055-101), at 800-fold the tested concentration and stored at -70 degrees C prior to their use. All drugs and investigational agents were tested over a range starting from a high concentration at or near the clinical Cmax and decreasing in half-log increments. If the clinical Cmax for an agent had not been determined, the highest concentration tested was 10 microM, except for SN-38, which was tested at a high concentration of 1 microM.
Cell Culture. All cells were maintained in an incubator at 37 degrees C and 5% CO2 with 95% humidity. The PDC lines were cultured according to standard operating procedures established by the NCI PDMR (https://pdmr.cancer.gov). Table 3 of the manuscript, lists the cell lines along with the number of the three cell types plated to form the mct-spheroids and media for tumor cell growth. After thawing, all PDC lines, except 997537-175-T-J1-PDC and 415267-285-R-J2-PDC, were cultured in Matrigel-coated flasks prepared with a working solution of 1X Ham's F-12 nutrient mix, without supplementation (Thermo Fisher Scientific, cat. 11765054), 100 U/mL penicillin-streptomycin (Thermo Fisher Scientific, cat. 15140122), and 2.5% Matrigel (Corning Inc., Corning, NY, cat. 354248) for the first three passages. The two PDC lines 997537-175-T-J1-PDC and 415267-285-R-J2-PDC were cultured on uncoated flasks. The 857933-349-R-J2-PDC line was cultured in 6C/Colon 1B media containing advanced DMEM/F-12 (Thermo Fisher Scientific, cat. 12634028), 10 mM HEPES (Thermo Fisher Scientific, cat. 15630080), 1X GlutaMAX supplement (Thermo Fisher Scientific, cat. 35050061), 0.1 mg/mL primocin (InvivoGen, San Diego, CA, cat. ant-pm-2), 10% defined fetal bovine serum, heat inactivated (HyClone Laboratories Inc., Logan, UT, cat. SH30070.03HI), 50% L-WRN conditioned media (ATCC, cat. CRL-3276), 1.25 mM N-Acetyl-L-cysteine (Sigma-Aldrich, cat. A9165), 10 mM nicotinamide (Sigma-Aldrich, cat. N0636), 1X B-27 supplement (Thermo Fisher Scientific, cat. 17504044), 1X N-2 supplement (Thermo Fisher Scientific, cat. […]

Values joined by “and” are separate entries in the source; they are usually repeats but may differ in a detail not shown here. Equal values may be shown once.

For orientation: IC50 means the concentration needed to halve the response being measured. As usually defined, the viability, T/C is the ratio of treated to control.
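Note: spheroids exposed to compounds for seven days.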

Turning to `CCCS(=O)(=O)Nc1ccc(F)c(C(=O)c2c[nH]c3ncc(-c4ccc(Cl)cc4)cc23)c1F` + COC1C(OC(N)=O)C(O)C(Oc2ccc3c(O)c(NC(=O)c4ccc(O)c(CC=C(C)C)c4)c(=O)oc3c2C)OC1(C)C, the IC50 is 8.12 µM (curve of first compound, second compound 0.0316 µM); 7.84 µM (curve of first compound, second compound 0.1 µM); greater than 10 µM (curve of first compound, second compound 0.316 µM); 7.81 µM (curve of first compound, second compound 1 µM); 9.15 µM (curve of first compound, second compound 3.16 µM); greater than 10 µM (curve of first compound, second compound 10 µM). Further, the viability, T/C is 95% (second compound 0.0316 µM, first compound 0.0316 µM); 90% (second compound 0.0316 µM, first compound 0.1 µM); 86.5% (second compound 0.0316 µM, first compound 0.316 µM); 93.4% (second compound 0.0316 µM, first compound 1 µM); 88.5% (second compound 0.0316 µM, first compound 3.16 µM); 41.5% (second compound 0.0316 µM, first compound 10 µM). Moreover, the viability, T/C by setting is: (second compound 0.1 µM, first compound 0.0316 µM) 98.4%; (second compound 0.1 µM, first compound 0.1 µM) 76.9%; (second compound 0.1 µM, first compound 0.316 µM) 96.2%; (second compound 0.1 µM, first compound 1 µM) 79.7%; (second compound 0.1 µM, first compound 3.16 µM) 87.7%; (second compound 0.1 µM, first compound 10 µM) 39.9%. Further, the viability, T/C is 91.4% (second compound 0.316 µM, first compound 0.0316 µM); 90.4% (second compound 0.316 µM, first compound 0.1 µM); 89.7% (second compound 0.316 µM, first compound 0.316 µM); 92.8% (second compound 0.316 µM, first compound 1 µM); 101% (second compound 0.316 µM, first compound 3.16 µM); 52% (second compound 0.316 µM, first compound 10 µM). Also, the viability, T/C runs as follows: (second compound 1 µM, first compound 0.0316 µM) 91.2%; (second compound 1 µM, first compound 0.1 µM) 97.2%; (second compound 1 µM, first compound 0.316 µM) 86.6%; (second compound 1 µM, first compound 1 µM) 86.8%; (second compound 1 µM, first compound 3.16 µM) 97.6%; (second compound 1 µM, first compound 10 µM) 38.5%. The viability, T/C (second compound 3.16 µM, first compound 0.0316 µM) is 92.2%; the viability, T/C (second compound 3.16 µM, first compound 0.1 µM) was 96.6%; the viability, T/C (second compound 3.16 µM, first compound 0.316 µM) is 93.5%; the viability, T/C (second compound 3.16 µM, first compound 1 µM) is 90.6%; the viability, T/C (second compound 3.16 µM, first compound 3.16 µM) was 88%; the viability, T/C (second compound 3.16 µM, first compound 10 µM) was 46.7%. The viability, T/C is, setting by setting: (second compound 10 µM, first compound 0.0316 µM) 118%; (second compound 10 µM, first compound 0.1 µM) 89.7%; (second compound 10 µM, first compound 0.316 µM) 93.6%; (second compound 10 µM, first compound 1 µM) 94%; (second compound 10 µM, first compound 3.16 µM) 92%; (second compound 10 µM, first compound 10 µM) 50.3%.

For the molecule `O=c1[nH]cc(F)c(=O)[nH]1`, the viability, T/C is, setting by setting: (compound 0.0316 µM) 88.9% and 104% and 92.7%; (compound 0.1 µM) 89.7% and 103% and 117%; (compound 0.316 µM) 97.9% and 120% and 108%; (compound 1 µM) 98% and 95% and 112%; (compound 3.16 µM) 77% and 103% and 69.6%; (compound 10 µM) 48.4% and 63.8% and 49.9%. Also, under “curve of compound”, the half-inhibitory concentration (IC50) is 9.37 µM and > 10 µM.

In the case of `CNCc1ccc(-c2[nH]c3cc(F)cc4c3c2CCNC4=O)cc1`, the viability, T/C was 101% and 103% and 98.4% (compound 0.0316 µM); 108% and 122% and 93.3% (compound 0.1 µM); 99.6% and 100% and 106% (compound 0.316 µM); 97.1% and 93.2% and 108% (compound 1 µM); 116% and 115% and 119% (compound 3.16 µM); 93.5% and 116% and 103% (compound 10 µM). The IC50 (curve of compound) is greater than 10 µM.

For the molecule `C=CCn1c(=O)c2cnc(Nc3ccc(N4CCN(C)CC4)cc3)nc2n1-c1cccc(C(C)(C)O)n1`, the viability, T/C is 95.7% and 86.8% and 99.2% (compound 0.00316 µM); 96% and 97.5% and 95.8% (compound 0.01 µM); 97.8% and 104% and 94.2% (compound 0.0316 µM); 93.9% and 91.6% and 113% (compound 0.1 µM); 13.8% and 27.6% and 28.5% (compound 0.316 µM); 7.74% and 14.5% and 12.9% (compound 1 µM). The IC50 (curve of compound) is 0.188 µM and 0.211 µM and 0.224 µM.

In the case of `CC1COCCN1c1cc(-c2ccnn2C)c2ccnc(-c3ccn[nH]3)c2n1` (configuration not stated), the viability, T/C runs as follows: (compound 0.0316 µM) 71.3% and 65.3% and 109%; (compound 0.1 µM) 13% and 10.7% and 26.4%; (compound 0.316 µM) 5.52% and 4.67% and 10.7%; (compound 1 µM) 4.69% and 4.34% and 7.36%; (compound 3.16 µM) 4.26% and 2.97% and 6.64%; (compound 10 µM) 4.3% and 3.61% and 9.38%. In addition, the IC50 (curve of compound) was 0.0482 µM and 0.0437 µM and 0.0722 µM.

Regarding `CCc1c2c(nc3ccc(O)cc13)-c1cc3c(c(=O)n1C2)COC(=O)[C@]3(O)CC`, the viability, T/C is, setting by setting: (compound 0.00316 µM) 71.2% and 120% and 58.7%; (compound 0.01 µM) 48.6% and 82.9% and 43.5%; (compound 0.0316 µM) 25.4% and 47% and 22.2%; (compound 0.1 µM) 12.7% and 25.5% and 10.8%; (compound 0.316 µM) 9.65% and 21.7% and 8.26%; (compound 1 µM) 7.75% and 21.3% and 6.71%. Moreover, the IC50 (curve of compound) is 0.00935 µM and 0.0277 µM and 0.00611 µM.
